Results reported in the CheMixHub viscosity set.
Several values for one entry are separate records, joined by “and”; a condition that tells them apart may be missing. Equal values may be shown once.

Assay: xn = mol fraction of the nth substance listed

CC#N + CO
Conditions | viscosity
298.15 K, 101 kPa, x1 = 0.0892 | 0.478 mPa·s
298.15 K, 101 kPa, x1 = 0.1871 | 0.431 mPa·s
298.15 K, 101 kPa, x1 = 0.2884 | 0.397 mPa·s
298.15 K, 101 kPa, x1 = 0.4054 | 0.365 mPa·s
298.15 K, 101 kPa, x1 = 0.4849 | 0.351 mPa·s
298.15 K, 101 kPa, x1 = 0.5981 | 0.339 mPa·s
298.15 K, 101 kPa, x1 = 0.6986 | 0.331 mPa·s
298.15 K, 101 kPa, x1 = 0.8078 | 0.327 mPa·s
298.15 K, 101 kPa, x1 = 0.9013 | 0.329 mPa·s
298.15 K, 101 kPa, x2 = 0.1219 | 0.331 mPa·s
298.15 K, 101 kPa, x2 = 0.178 | 0.334 mPa·s
298.15 K, 101 kPa, x2 = 0.2 | 0.334 mPa·s
298.15 K, 101 kPa, x2 = 0.216 | 0.329 mPa·s and 0.333 mPa·s
298.15 K, 101 kPa, x2 = 0.3487 | 0.334 mPa·s
298.15 K, 101 kPa, x2 = 0.378 | 0.342 mPa·s
298.15 K, 101 kPa, x2 = 0.394 | 0.343 mPa·s
298.15 K, 101 kPa, x2 = 0.4 | 0.343 mPa·s
298.15 K, 101 kPa, x2 = 0.412 | 0.345 mPa·s
298.15 K, 101 kPa, x2 = 0.577 | 0.369 mPa·s
298.15 K, 101 kPa, x2 = 0.6 | 0.373 mPa·s
298.15 K, 101 kPa, x2 = 0.6804 | 0.339 mPa·s
298.15 K, 101 kPa, x2 = 0.711 | 0.402 mPa·s
298.15 K, 101 kPa, x2 = 0.743 | 0.419 mPa·s
298.15 K, 101 kPa, x2 = 0.8 | 0.435 mPa·s
298.15 K, 101 kPa, x2 = 0.86 | 0.459 mPa·s
298.15 K, 101 kPa, x2 = 0.881 | 0.469 mPa·s
298.15 K, 101 kPa, x2 = 0.887 | 0.472 mPa·s
298.15 K, 101 kPa, x2 = 0.9 | 0.48 mPa·s
298.15 K, 101.33 kPa, x1 = 0.0495 | 0.509 mPa·s
298.15 K, 101.33 kPa, x1 = 0.0999 | 0.479 mPa·s
298.15 K, 101.33 kPa, x1 = 0.1494 | 0.455 mPa·s
298.15 K, 101.33 kPa, x1 = 0.1995 | 0.434 mPa·s
298.15 K, 101.33 kPa, x1 = 0.245 | 0.418 mPa·s
298.15 K, 101.33 kPa, x1 = 0.2998 | 0.4 mPa·s
298.15 K, 101.33 kPa, x1 = 0.3451 | 0.387 mPa·s
298.15 K, 101.33 kPa, x1 = 0.3997 | 0.374 mPa·s
298.15 K, 101.33 kPa, x1 = 0.4489 | 0.364 mPa·s
298.15 K, 101.33 kPa, x1 = 0.495 | 0.357 mPa·s
298.15 K, 101.33 kPa, x1 = 0.5496 | 0.349 mPa·s
298.15 K, 101.33 kPa, x1 = 0.5999 | 0.343 mPa·s
298.15 K, 101.33 kPa, x1 = 0.6494 | 0.34 mPa·s
298.15 K, 101.33 kPa, x1 = 0.6997 | 0.336 mPa·s
298.15 K, 101.33 kPa, x1 = 0.745 | 0.334 mPa·s
298.15 K, 101.33 kPa, x1 = 0.7995 | 0.333 mPa·s
298.15 K, 101.33 kPa, x1 = 0.8496 | 0.335 mPa·s
298.15 K, 101.33 kPa, x1 = 0.8998 | 0.338 mPa·s
298.15 K, 101.33 kPa, x1 = 0.95 | 0.34 mPa·s
303 K, 100 kPa, x1 = 0.0991 | 0.4985 mPa·s
303 K, 100 kPa, x1 = 0.2043 | 0.4812 mPa·s
303 K, 100 kPa, x1 = 0.316 | 0.4588 mPa·s
303 K, 100 kPa, x1 = 0.4039 | 0.4395 mPa·s
303 K, 100 kPa, x1 = 0.5003 | 0.4202 mPa·s
303 K, 100 kPa, x1 = 0.6063 | 0.4016 mPa·s
303 K, 100 kPa, x1 = 0.7402 | 0.3785 mPa·s
303 K, 100 kPa, x1 = 0.8688 | 0.3645 mPa·s
303.15 K, 101 kPa, x1 = 0.0892 | 0.423 mPa·s
303.15 K, 101 kPa, x1 = 0.1871 | 0.385 mPa·s
303.15 K, 101 kPa, x1 = 0.2884 | 0.357 mPa·s
303.15 K, 101 kPa, x1 = 0.4054 | 0.327 mPa·s
303.15 K, 101 kPa, x1 = 0.4849 | 0.317 mPa·s
303.15 K, 101 kPa, x1 = 0.5981 | 0.308 mPa·s
303.15 K, 101 kPa, x1 = 0.6986 | 0.302 mPa·s
303.15 K, 101 kPa, x1 = 0.8078 | 0.299 mPa·s
303.15 K, 101 kPa, x1 = 0.8746 | 0.514 mPa·s
303.15 K, 101 kPa, x1 = 0.9013 | 0.304 mPa·s
308 K, 100 kPa, x1 = 0.0991 | 0.4521 mPa·s
308 K, 100 kPa, x1 = 0.2043 | 0.4145 mPa·s
308 K, 100 kPa, x1 = 0.316 | 0.3945 mPa·s
308 K, 100 kPa, x1 = 0.4039 | 0.3815 mPa·s
308 K, 100 kPa, x1 = 0.5003 | 0.3712 mPa·s
308 K, 100 kPa, x1 = 0.6063 | 0.3621 mPa·s
308 K, 100 kPa, x1 = 0.7402 | 0.3502 mPa·s
308 K, 100 kPa, x1 = 0.8688 | 0.3423 mPa·s
308.15 K, 101 kPa, x1 = 0.0892 | 0.376 mPa·s
308.15 K, 101 kPa, x1 = 0.1871 | 0.346 mPa·s
308.15 K, 101 kPa, x1 = 0.2884 | 0.321 mPa·s
308.15 K, 101 kPa, x1 = 0.4054 | 0.298 mPa·s
308.15 K, 101 kPa, x1 = 0.4849 | 0.291 mPa·s
308.15 K, 101 kPa, x1 = 0.5981 | 0.282 mPa·s
308.15 K, 101 kPa, x1 = 0.6986 | 0.278 mPa·s
308.15 K, 101 kPa, x1 = 0.8078 | 0.276 mPa·s
308.15 K, 101 kPa, x1 = 0.9013 | 0.28 mPa·s
308.15 K, 101.33 kPa, x1 = 0.0495 | 0.451 mPa·s
308.15 K, 101.33 kPa, x1 = 0.0999 | 0.436 mPa·s
308.15 K, 101.33 kPa, x1 = 0.1494 | 0.412 mPa·s
308.15 K, 101.33 kPa, x1 = 0.1995 | 0.395 mPa·s
308.15 K, 101.33 kPa, x1 = 0.245 | 0.38 mPa·s
308.15 K, 101.33 kPa, x1 = 0.2998 | 0.364 mPa·s
308.15 K, 101.33 kPa, x1 = 0.3451 | 0.352 mPa·s
308.15 K, 101.33 kPa, x1 = 0.3997 | 0.341 mPa·s
308.15 K, 101.33 kPa, x1 = 0.4489 | 0.333 mPa·s
308.15 K, 101.33 kPa, x1 = 0.495 | 0.326 mPa·s
308.15 K, 101.33 kPa, x1 = 0.5496 | 0.32 mPa·s
308.15 K, 101.33 kPa, x1 = 0.5999 | 0.314 mPa·s
308.15 K, 101.33 kPa, x1 = 0.6494 | 0.31 mPa·s
308.15 K, 101.33 kPa, x1 = 0.6997 | 0.307 mPa·s
308.15 K, 101.33 kPa, x1 = 0.745 | 0.305 mPa·s
308.15 K, 101.33 kPa, x1 = 0.7995 | 0.305 mPa·s
308.15 K, 101.33 kPa, x1 = 0.8496 | 0.306 mPa·s
308.15 K, 101.33 kPa, x1 = 0.8998 | 0.307 mPa·s
308.15 K, 101.33 kPa, x1 = 0.95 | 0.309 mPa·s
313 K, 100 kPa, x1 = 0.0991 | 0.4125 mPa·s
313 K, 100 kPa, x1 = 0.2043 | 0.3956 mPa·s
313 K, 100 kPa, x1 = 0.316 | 0.3838 mPa·s
313 K, 100 kPa, x1 = 0.4039 | 0.3736 mPa·s
313 K, 100 kPa, x1 = 0.5003 | 0.3612 mPa·s
313 K, 100 kPa, x1 = 0.6063 | 0.3512 mPa·s
313 K, 100 kPa, x1 = 0.7402 | 0.3375 mPa·s
313 K, 100 kPa, x1 = 0.8688 | 0.3215 mPa·s
318.15 K, 101.33 kPa, x1 = 0.0495 | 0.403 mPa·s
318.15 K, 101.33 kPa, x1 = 0.0999 | 0.39 mPa·s
318.15 K, 101.33 kPa, x1 = 0.1494 | 0.376 mPa·s
318.15 K, 101.33 kPa, x1 = 0.1995 | 0.361 mPa·s
318.15 K, 101.33 kPa, x1 = 0.245 | 0.347 mPa·s
318.15 K, 101.33 kPa, x1 = 0.2998 | 0.333 mPa·s
318.15 K, 101.33 kPa, x1 = 0.3451 | 0.323 mPa·s
318.15 K, 101.33 kPa, x1 = 0.3997 | 0.313 mPa·s
318.15 K, 101.33 kPa, x1 = 0.4489 | 0.306 mPa·s
318.15 K, 101.33 kPa, x1 = 0.495 | 0.3 mPa·s
